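A five-concentration, 48-hour dose response in 96-well plates underlies each endpoint, interpolated linearly between surrounding concentrations. GI50: concentration for 50% inhibition of growth.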 Active and inactive are the calls of the source. Rule as the data show it: active = GI50 up to about 1.1 µM and inactive = higher.
Assays:
Test in all cases: NCI tumour cell line growth inhibition, 48 h
[1] = tested on: A549
[2] = tested on: SK-OV-3
[3] = tested on: 786-0
[4] = tested on: Malme-3M
[5] = tested on: U-251
[6] = tested on: RXF 393
[7] = tested on: OVCAR-3
[8] = tested on: BT-549
[9] = tested on: SW-620
[10] = tested on: TK-10
[11] = tested on: HCT-15
[12] = tested on: NCI/ADR-RES
[13] = tested on: M14
[14] = tested on: SF-268
[15] = tested on: HOP-62
[16] = tested on: NCI-H460
[17] = tested on: SF-539
[18] = tested on: OVCAR-8
[19] = tested on: HCT-116
[20] = tested on: CCRF-CEM
[21] = tested on: MCF7
[22] = tested on: OVCAR-5
[23] = tested on: SN12C
[24] = tested on: OVCAR-4
[25] = tested on: ACHN
[26] = tested on: HCC 2998
[27] = tested on: MDA-MB-231
[28] = tested on: COLO 205
[29] = tested on: NCI-H226
[30] = tested on: A498
[31] = tested on: UACC-257
[32] = tested on: LOX IMVI
[33] = tested on: PC-3
[34] = tested on: SNB-19
[35] = tested on: NCI-H23
[36] = tested on: NCI-H522
[37] = tested on: EKVX
[38] = tested on: T47D
[39] = tested on: MDA-N
[40] = tested on: SK-MEL-28
[41] = tested on: SF-295
[42] = tested on: CAKI-1
[43] = tested on: RPMI-8226
[44] = tested on: KM12
[45] = tested on: SK-MEL-2
[46] = tested on: SNB-75
[47] = tested on: MDA-MB-435
[48] = tested on: UO-31
[49] = tested on: UACC-62
[50] = tested on: SK-MEL-5
[51] = tested on: SR
[52] = tested on: HL-60
[53] = tested on: K562
[54] = tested on: MOLT-4
[55] = tested on: HOP-92
[56] = tested on: IGROV-1
[57] = tested on: DU-145
[58] = tested on: HT-29
[59] = tested on: Hs-578T

With `Cc1cc2[nH]c3c(C#N)c(-c4ccccc4)c(CN4CCOCC4)c(=O)n3c2cc1C` the GI50 [1] was > 100 µM (inactive), the GI50 [2] was > 100 µM (inactive) and the GI50 [3] was > 100 µM (inactive). The GI50 [4] was > 100 µM (inactive), the GI50 [5] was > 100 µM (inactive) and the GI50 [6] was > 100 µM (inactive). The GI50 [7] was > 100 µM (inactive), the GI50 [8] was > 100 µM (inactive) and the GI50 [9] was > 100 µM (inactive). For the same compound, the GI50 [10] was > 100 µM (inactive), the GI50 [11] was > 100 µM and the GI50 [12] was > 100 µM (inactive). The GI50 [13] was > 100 µM (inactive), the GI50 [14] was > 100 µM (inactive) and the GI50 [15] was > 100 µM (inactive). The GI50 [16] was > 100 µM (inactive), the GI50 [17] was > 100 µM (inactive) and the GI50 [18] was > 100 µM (inactive). The GI50 [19] was > 100 µM (inactive), the GI50 [20] was > 100 µM (inactive) and the GI50 [21] was > 100 µM (inactive). The GI50 [22] was > 100 µM (inactive), the GI50 [23] was > 100 µM (inactive) and the GI50 [24] was > 100 µM (inactive). For the same compound, the GI50 [25] was > 100 µM (inactive), the GI50 [26] was > 100 µM (inactive) and the GI50 [27] was > 100 µM (inactive). The GI50 [28] was > 100 µM (inactive), the GI50 [29] was > 100 µM (inactive) and the GI50 [30] was > 100 µM (inactive). For the same compound, the GI50 [31] was > 100 µM (inactive), the GI50 [32] was > 100 µM (inactive) and the GI50 [33] was > 100 µM (inactive). For the same compound, the GI50 [34] was > 100 µM (inactive), the GI50 [35] was > 100 µM (inactive) and the GI50 [36] was > 100 µM (inactive). For the same compound, the GI50 [37] was > 100 µM (inactive), the GI50 [38] was > 100 µM (inactive) and the GI50 [39] was > 100 µM (inactive). For the same compound, the GI50 [40] was > 100 µM (inactive), the GI50 [41] was > 100 µM (inactive) and the GI50 [42] was > 100 µM (inactive). For the same compound, the GI50 [43] was > 100 µM (inactive), the GI50 [44] was > 100 µM (inactive) and the GI50 [45] was > 100 µM (inactive). The GI50 [46] was 40.7 µM (inactive), the GI50 [47] was > 100 µM (inactive) and the GI50 [48] was > 100 µM (inactive).
With `CC#CC(O)(C(=O)OC1CCCN(C)C1)C1=CC=CCC1` (stereo unspecified) the GI50 [1] was > 100 µM (inactive), the GI50 [2] was > 100 µM (inactive) and the GI50 [3] was > 100 µM (inactive). The GI50 [4] was > 100 µM (inactive), the GI50 [5] was > 100 µM (inactive) and the GI50 [6] was > 100 µM (inactive). For the same compound, the GI50 [7] was > 100 µM (inactive), the GI50 [49] was > 100 µM (inactive) and the GI50 [9] was > 100 µM (inactive). The GI50 [10] was > 100 µM (inactive), the GI50 [50] was > 100 µM (inactive) and the GI50 [11] was > 100 µM. The GI50 [12] was 0.49 µM (active), the GI50 [13] was > 100 µM (inactive) and the GI50 [14] was > 100 µM (inactive). For the same compound, the GI50 [15] was > 100 µM (inactive), the GI50 [16] was > 100 µM (inactive) and the GI50 [17] was > 100 µM (inactive). The GI50 [18] was > 100 µM (inactive), the GI50 [19] was > 100 µM (inactive) and the GI50 [20] was > 100 µM (inactive). For the same compound, the GI50 [21] was > 100 µM (inactive), the GI50 [22] was > 100 µM (inactive) and the GI50 [51] was > 100 µM (inactive). For the same compound, the GI50 [23] was > 100 µM (inactive), the GI50 [24] was > 100 µM (inactive) and the GI50 [52] was > 100 µM (inactive). The GI50 [25] was > 100 µM (inactive), the GI50 [53] was > 100 µM (inactive) and the GI50 [26] was > 100 µM (inactive). For the same compound, the GI50 [54] was > 100 µM (inactive), the GI50 [27] was > 100 µM (inactive) and the GI50 [28] was > 100 µM (inactive). For the same compound, the GI50 [29] was > 100 µM (inactive), the GI50 [30] was > 100 µM (inactive) and the GI50 [31] was > 100 µM (inactive). For the same compound, the GI50 [32] was > 100 µM (inactive), the GI50 [55] was > 100 µM (inactive) and the GI50 [56] was > 100 µM (inactive). The GI50 [33] was > 100 µM (inactive), the GI50 [34] was > 100 µM (inactive) and the GI50 [57] was > 100 µM (inactive). For the same compound, the GI50 [58] was > 100 µM (inactive), the GI50 [59] was > 100 µM (inactive) and the GI50 [35] was > 100 µM (inactive). For the same compound, the GI50 [36] was > 100 µM (inactive), the GI50 [37] was > 100 µM (inactive) and the GI50 [38] was > 100 µM (inactive). The GI50 [39] was > 100 µM (inactive), the GI50 [40] was > 100 µM (inactive) and the GI50 [41] was > 100 µM (inactive). For the same compound, the GI50 [42] was > 100 µM (inactive), the GI50 [43] was > 100 µM (inactive) and the GI50 [44] was > 100 µM (inactive). For the same compound, the GI50 [45] was > 100 µM (inactive), the GI50 [46] was > 100 µM (inactive) and the GI50 [47] was > 100 µM (inactive). For the same compound, the GI50 [48] was > 100 µM (inactive).

Source: ChEMBL document CHEMBL1201862, “PubChem BioAssay data set” (2004)
